One may read the EC50 as the midpoint of the concentration-response curve.

This is an account of results in US20220313698A1, “MODULATORS OF CYSTIC FIBROSIS TRANSMEMBRANE CONDUCTANCE REGULATOR” (Vertex Pharmaceuticals Incorporated, priority 2019, published 2022).

Some results are limits rather than exact numbers.

The target of assay [1] is T1, CFTR-mediated chloride transport (Homo sapiens, UniProt P13569). Description: Corrector Assay B - membrane potential dye assay (enteroid cells).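 For all read-outs here: methyl oxonol membrane potential fluorescence followed over 15 min after switching to chloride-free buffer with forskolin, 100 µM IBMX and ivacaftor, in presence of CaCC blockers.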 As to conditions: for Corrector Assay B % activity: % of chloride transport of triple combination control (3 μM Compound A + 3 μM tezacaftor + 300 nM ivacaftor); for EC50: read-out: Corrector Assay B EC50, human intestinal enteroid cells, 18-24 h incubation, acute 10 μM forskolin + 300 nM ivacaftor.
Description: Base medium (ADF+++) consisted of Advanced DMEM/Ham's F12, 2 mM Glutamax, 10 mM HEPES, 1 μg/ml penicillin/streptomycin.
Intestinal enteroid maintenance medium (IEMM) consisted of ADF+++, 1×B27 supplement, 1×N2 supplement, 1.25 mM N-acetyl cysteine, 10 mM Nicotinamide, 50 ng/mL hEGF, 10 nM Gastrin, 1 μg/mL hR-spondin-1, 100 ng/mL hNoggin, TGF-b type 1 inhibitor A-83-01, 100 μg/mL Primocin, 10 μM P38 MAPK inhibitor SB202190.
Bath 1 Buffer consisted of 1 mM MgCl2, 160 mM NaCl, 4.5 mM KCl, 10 mM HEPES, 10 mM Glucose, 2 mM CaCl2).
Chloride Free Buffer consisted of 1 mM Magnesium Gluconate, 2 mM Calcium Gluconate, 4.5 mM Potassium Gluconate, 160 mM Sodium Gluconate, 10 mM HEPES, 10 mM Glucose.
Bath 1 Dye Solution consisted of Bath 1 Buffer, 0.04% Pluronic F127, 20 μM Methyl Oxonol, 30 μM CaCCinh-A01, 30 μM Chicago Sky Blue.
Chloride Free Dye Solution consisted of Chloride Free Buffer, 0.04% Pluronic F127, 20 μM Methyl Oxonol, 30 μM CaCCinh-A01, 30 μM Chicago Sky Blue.
Chloride Free Dye Stimulation Solution consisted of Chloride Free Dye Solution, 10 μM forskolin, 100 μM IBMX, and 300 nM Ivacaftor.
Cells were recovered in cell recovery solution, collected by centrifugation at 650 rpm for 5 min at 4° C., resuspended in TryPLE and incubated for 5 min at 37° C. Cells were then collected by centrifugation at 650 rpm for 5 min at 4° C. and resuspended in IEMM containing 10 μM ROCK inhibitor (RI). The cell suspension was passed through a 40 μm cell strainer and resuspended at 1×10^6 cells/mL in IEMM containing 10 μM RI. Cells were seeded at 5000 cells/well into multi-well plates and incubated for overnight at 37° C., 95% humidity and 5% CO2 prior to assay.
Briefly, cells were washed 5 times in Bath 1 Buffer. Bath 1 Dye Solution was added and the cells were incubated for 25 min at room temperature. Following dye incubation, cells were washed 3 times in Chloride Free Dye Solution. Chloride transport was initiated by addition of Chloride Free Dye Stimulation Solution and the fluorescence signal was read for 15 min. The CFTR-mediated chloride transport for each condition was determined from the AUC of the fluorescence response to acute forskolin and 300 nM N-[2,4-bis(1,1-dimethylethyl)-5-hydroxyphenyl]-1,4-dihydro-4-oxoquinoline-3-carboxamide stimulation. Chloride transport was then expressed as a percentage of the chloride transport following treatment with 3 μM Compound A, 3 μM (R)-1-(2,2-difluorobenzo[d][1,3]dioxol-5-yl)-N-(1-(2,3-dihydroxypropyl)-6-fluoro-2-(1-hydroxy-2-methylpropan-2-yl)-1H-indol-5-yl)cyclopropanecarboxamide and 300 nM acute N-[2,4-bis(1,1-dimethylethyl)-5-hydroxyphenyl]-1,4-dihydro-4-oxoquinoline-3-carboxamide triple combination control (% Activity).

Assay [2] addresses T1, CFTR-mediated chloride transport. Description: Corrector Assay A - membrane potential dye assay (enteroid cells). To be noted: for Corrector Assay A % activity: % of chloride transport of triple combination control (1 μM (14S)-dispiro macrocycle + 3 μM tezacaftor + 300 nM ivacaftor); for EC50: read-out: Corrector Assay A EC50, human intestinal enteroid cells, 18-24 h incubation, acute 10 μM forskolin + 300 nM ivacaftor.

On to `CC1(C)C[C@@H]2CCCN(CCC(N)=O)c3cccc(n3)S(=O)(=O)NC(=O)c3ccc(-n4ccc(OCCC5(C(F)(F)F)CC5)n4)nc3N1C2` [Compound 378, 3-[(14S)-12,12-Dimethyl-2,2,4-trioxo-8-(3-{2-[1-(trifluoromethyl)cyclopropyl]ethoxy}-1H-pyrazol-1-yl)-2λ^6-thia-3,9,11,18,23-pentaazatetracyclo[17.3.1.111,14.05,10]tetracosa-1(23),5(10),6,8,19,21-hexaen-18-yl]propanamide], for which, in assay [1], the “Corrector Assay B % activity” value was “+++ (+++ is >60%)” and the EC50 was under 1000 nM.

Take `CC1(C)CC2CC(c3ccccc3)CNc3cccc(n3)S(=O)(=O)NC(=O)c3ccc(-n4ccc(OCCC5(C(F)(F)F)CC5)n4)nc3N1C2` (single isomer, unassigned) [Compound 392, 12,12-dimethyl-16-phenyl-8-(3-{2-[1-(trifluoromethyl)cyclopropyl]ethoxy}-1H-pyrazol-1-yl)-2λ^6-thia-3,9,11,18,23-pentaazatetracyclo[17.3.1.111,14.05,10]tetracosa-1(22),5,7,9,19(23),20-hexaene-2,2,4-trione]: in assay [1], the “Corrector Assay B % activity” value was “++ (++ is 30-60%)” and the EC50 is under 1000 nM.

Regarding `CN(C)C(=O)CN1CCC[C@@H]2CN(c3nc(-n4ccc(OCCC5(C(F)(F)F)CC5)n4)ccc3C(=O)NS(=O)(=O)c3cccc1n3)C(C)(C)C2` [Compound 376], in assay [1], the “Corrector Assay B % activity” value is “++ (++ is 30-60%)” and the EC50 is under 1000 nM.

With `CC(C)(C)c1ccc2c(n1)N1C[C@@H](CCC(c3ccc(C(=O)O)cc3)Nc3cccc(n3)S(=O)(=O)NC2=O)CC1(C)C` (single isomer, unassigned) [Compound 290], in assay [1], the “Corrector Assay B % activity” value is recorded as “++ (++ is 30-60%)” and the EC50 was in the range of 1000 to 3000 nM.

As for `CC1(C)C[C@@H]2CCC(c3ccc(C(=O)O)cc3)Nc3cccc(n3)S(=O)(=O)NC(=O)c3ccc(-n4ccc(OCCC5(C(F)(F)F)CC5)n4)nc3N1C2` (single isomer, unassigned) [Compound 371], in assay [1], the “Corrector Assay B % activity” value is reported as “+++ (+++ is >60%)” and the EC50 is under 1000 nM.

As for `CC(C)(C)OC(=O)N1CCC2(CC1)CC(NC(=O)C1CC[C@@H]3CN(c4nc(C(C)(C)C)ccc4C(=O)NS(=O)(=O)c4cccc(n4)N1)C(C)(C)C3)C2` (single isomer, unassigned) [Compound 226], in assay [2], the “Corrector Assay A % activity” value is given as “+++ (+++ is >60%)” and the EC50 was under 1000 nM.

Regarding `CC(C)(C)c1ccc2c(n1)N1C[C@@H](CC[C@H](c3cccc(C4=CCNCC4)n3)Nc3cccc(n3)S(=O)(=O)NC2=O)CC1(C)C` [Compound 142, (14S,17R)-8-tert-Butyl-12,12-dimethyl-17-{1′,2′,3′,6′-tetrahydro-[2,4′-bipyridine]-6-yl}-2λ^6-thia-3,9,11,18,23-pentaazatetracyclo [17.3.1.111,14.05,10]tetracosa-1(23),5(10),6,8,19,21-hexaene-2,2,4-trione], in assay [2], the “Corrector Assay A % activity” value is reported as “+++ (+++ is >60%)” and the EC50 is under 1000 nM.

As for `CC(C)(C)c1ccc2c(n1)N1C[C@@H](CCC(c3ccc(-c4cc[nH]n4)cn3)Nc3cccc(n3)S(=O)(=O)NC2=O)CC1(C)C` (stereo partly shown) [Compound 130], in assay [2], the “Corrector Assay A % activity” value is listed as “+++ (+++ is >60%)” and the EC50 was under 1000 nM.

With `CC1(C)C[C@@H]2CC[C@H](c3ccccn3)Nc3cccc(n3)S(=O)(=O)NC(=O)c3ccc(C4CCC4)nc3N1C2` [Compound 330, (14S,17R)-8-cyclobutyl-12,12-dimethyl-17-(pyridin-2-yl)-2λ^6-thia-3,9,11,18,23-pentaazatetracyclo[17.3.1.111,14.05,10]tetracosa-1(22),5,7,9,19(23),20-hexaene-2,2,4-trione], in assay [2], the “Corrector Assay A % activity” value was “+++ (+++ is >60%)” and the EC50 was under 1000 nM.

For `CC(C)(C)c1ccc2c(n1)N1C[C@@H](CC[C@H](c3cccc(N4CCOCC4)n3)Nc3cccc(n3)S(=O)(=O)NC2=O)CC1(C)C` [Compound 191], in assay [2], the “Corrector Assay A % activity” value was “+++ (+++ is >60%)” and the EC50 was under 1000 nM.

`CC(C)(C)c1ccc2c(n1)N1C[C@@H](CCC(c3cc(C#N)ccn3)Nc3cccc(n3)S(=O)(=O)NC2=O)CC1(C)C` (single isomer, unassigned) [Compound 144]: in assay [2], the “Corrector Assay A % activity” value is listed as “+++ (+++ is >60%)” and the EC50 was under 1000 nM.

Regarding `CC(C)(C)c1ccc2c(n1)N1C[C@@H](CC[C@@H](C3CCOCC3)Nc3cccc(n3)S(=O)(=O)NC2=O)CC1(C)C` (single isomer, unassigned) [Compound 269], in assay [2], the “Corrector Assay A % activity” value is reported as “++ (++ is 30-60%)” and the EC50 was under 1000 nM.

For `CC(C)(C)c1cccc(C2CC[C@@H]3CN(c4nc(C(C)(C)C)ccc4C(=O)NS(=O)(=O)c4cccc(n4)N2)C(C)(C)C3)c1` (single isomer, unassigned) [Compound 40], in assay [2], the “Corrector Assay A % activity” value is reported as “++ (++ is 30-60%)” and the EC50 is under 1000 nM.

Regarding `CC(C)(C)c1ccc2c(n1)N1C[C@@H](CC[C@@H](C3CCN(c4ncccn4)CC3)Nc3cccc(n3)S(=O)(=O)NC2=O)CC1(C)C` (single isomer, unassigned) [Compound 219], in assay [2], the “Corrector Assay A % activity” value is recorded as “++ (++ is 30-60%)” and the EC50 is under 1000 nM.

As for `CC(C)(C)c1ccc2c(n1)N1C[C@@H](CCC(c3ccc(CO)cn3)Nc3cccc(n3)S(=O)(=O)NC2=O)CC1(C)C` (stereo partly drawn) [Compound 79, (14S)-8-tert-butyl-17-[5-(hydroxymethyl)pyridin-2-yl]-12,12-dimethyl-2λ^6-thia-3,9,11,18,23-pentaazatetracyclo[17.3.1.111,14.05,10]tetracosa-1(23),5(10),6,8,19,21-hexaene-2,2,4-trione], in assay [2], the “Corrector Assay A % activity” value is “+++ (+++ is >60%)” and the EC50 was under 1000 nM.

On to `CC1(C)C[C@@H]2CC[C@H](c3ccccn3)Nc3cccc(n3)S(=O)(=O)NC(=O)c3ccc(Br)nc3N1C2` [Compound 246, (14S,17R)-8-bromo-12,12-dimethyl-17-(pyridin-2-yl)-2λ^6-thia-3,9,11,18,23-pentaazatetracyclo[17.3.1.111,14.05,10]tetracosa-1(22),5,7,9,19(23),20-hexaene-2,2,4-trione], for which, in assay [2], the “Corrector Assay A % activity” value is listed as “++ (++ is 30-60%)” and the EC50 was under 1000 nM.

Take `CC(C)(C)c1ccc2c(n1)N1C[C@@H](CCC(c3cc(Cl)ccn3)Nc3cccc(n3)S(=O)(=O)NC2=O)CC1(C)C` (single isomer, unassigned) [Compound 127]: in assay [2], the “Corrector Assay A % activity” value is recorded as “+++ (+++ is >60%)” and the EC50 is under 1000 nM.

In the case of `CC1(C)CC(C2CC[C@@H]3CN(c4nc(C(C)(C)C)ccc4C(=O)NS(=O)(=O)c4cccc(n4)N2)C(C)(C)C3)CC(C)(C)O1` (single isomer, unassigned) [Compound 42], in assay [2], the “Corrector Assay A % activity” value is listed as “++ (++ is 30-60%)” and the EC50 is under 1000 nM.

On to `CC(C)(C)c1ccc2c(n1)N1C[C@@H](CC[C@@H](c3cccc(CN)n3)Nc3cccc(n3)S(=O)(=O)NC2=O)CC1(C)C` [Compound 202], for which, in assay [2], the “Corrector Assay A % activity” value is “++ (++ is 30-60%)” and the EC50 was under 1000 nM.

Take `CN(C)CCNc1cccc([C@@H]2CC[C@@H]3CN(c4nc(C(C)(C)C)ccc4C(=O)NS(=O)(=O)c4cccc(n4)N2)C(C)(C)C3)n1` [Compound 188]: in assay [2], the “Corrector Assay A % activity” value is recorded as “++ (++ is 30-60%)” and the EC50 is under 1000 nM.

Take `CC(C)CC#Cc1ccc2c(n1)N1C[C@@H](CC[C@H](c3ccccn3)Nc3cccc(n3)S(=O)(=O)NC2=O)CC1(C)C` [Compound 157, (14S,17R)-12,12-dimethyl-8-(4-methylpent-1-yn-1-yl)-17-(pyridin-2-yl)-2λ^6-thia-3,9,11,18,23-pentaazatetracyclo[17.3.1.111,14.05,10]tetracosa-1(22),5,7,9,19(23),20-hexaene-2,2,4-trione]: in assay [2], the “Corrector Assay A % activity” value is “+++ (+++ is >60%)” and the EC50 was under 1000 nM.

In the case of `CN1CCN(c2ccc(C3CC[C@@H]4CN(c5nc(C(C)(C)C)ccc5C(=O)NS(=O)(=O)c5cccc(n5)N3)C(C)(C)C4)nc2)CC1` (stereo partly shown) [Compound 200], in assay [2], the “Corrector Assay A % activity” value is reported as “+++ (+++ is >60%)” and the EC50 is under 1000 nM.

Turning to `CC(C)(C)OC(=O)NCc1ccnc(C2CC[C@@H]3CN(c4nc(C(C)(C)C)ccc4C(=O)NS(=O)(=O)c4cccc(n4)N2)C(C)(C)C3)c1` (single isomer, unassigned) [Compound 120], in assay [2], the “Corrector Assay A % activity” value was “+++ (+++ is >60%)” and the EC50 was under 1000 nM.

For `CC(C)(C)c1ccc2c(n1)N1C[C@@H](CCC(c3ccc(C4COC4)cn3)Nc3cccc(n3)S(=O)(=O)NC2=O)CC1(C)C` (single isomer, unassigned) [Compound 39], in assay [2], the “Corrector Assay A % activity” value is on record as “+++ (+++ is >60%)” and the EC50 is under 1000 nM.

In the case of `Cc1ccc2nc3c(cc2c1)C(=O)NS(=O)(=O)c1cccc(n1)N[C@H](c1cc(C(C)(C)C)ccn1)CC[C@@H]1CN3C(C)(C)C1` (single isomer, unassigned) [Compound 5], in assay [2], the “Corrector Assay A % activity” value is “+++ (+++ is >60%)” and the EC50 was under 1000 nM.

Take `CC(C)(C)c1ccnc([C@H]2CC[C@@H]3CN(c4nc(-c5cccc(OCCC6CC6)n5)ccc4C(=O)NS(=O)(=O)c4cccc(n4)N2)C(C)(C)C3)c1` [Compound 301, (14S,17R)-17-(4-tert-butylpyridin-2-yl)-8-[6-(2-cyclopropylethoxy)pyridin-2-yl]-12,12-dimethyl-2λ^6-thia-3,9,11,18,23-pentaazatetracyclo[17.3.1.111,14.05,10]tetracosa-1(22),5,7,9,19(23),20-hexaene-2,2,4-trione]: in assay [2], the “Corrector Assay A % activity” value is “+++ (+++ is >60%)” and the EC50 is under 1000 nM.
